Measurements reported in US20040028675A1, “Compositions for the treatment of lupus” (Zarlink Semiconductor AB, priority 2001, published 2004).

Legend:
[1] = tested on: patients with Lupus (Systemic Lupus Erythematosus); conditions: osteoarthritis or Lupus caused joint inflammation; cited from earlier work
[2] = biological target: T1, Kv1.3 channel (Homo sapiens, UniProt P22001); experiment: Screening tests of ion channel function; conditions: screening tests by experts in ion channel function
[3] = tested on: patients with Lupus (Systemic Lupus Erythematosus); experiment: Treatment of patients with Lupus (SLE) with the inventive composition
[4] = biological target: T1, Kv1.3 channel; conditions: independently demonstrated; cited from earlier work

T1 sequence (P22001 whole entry): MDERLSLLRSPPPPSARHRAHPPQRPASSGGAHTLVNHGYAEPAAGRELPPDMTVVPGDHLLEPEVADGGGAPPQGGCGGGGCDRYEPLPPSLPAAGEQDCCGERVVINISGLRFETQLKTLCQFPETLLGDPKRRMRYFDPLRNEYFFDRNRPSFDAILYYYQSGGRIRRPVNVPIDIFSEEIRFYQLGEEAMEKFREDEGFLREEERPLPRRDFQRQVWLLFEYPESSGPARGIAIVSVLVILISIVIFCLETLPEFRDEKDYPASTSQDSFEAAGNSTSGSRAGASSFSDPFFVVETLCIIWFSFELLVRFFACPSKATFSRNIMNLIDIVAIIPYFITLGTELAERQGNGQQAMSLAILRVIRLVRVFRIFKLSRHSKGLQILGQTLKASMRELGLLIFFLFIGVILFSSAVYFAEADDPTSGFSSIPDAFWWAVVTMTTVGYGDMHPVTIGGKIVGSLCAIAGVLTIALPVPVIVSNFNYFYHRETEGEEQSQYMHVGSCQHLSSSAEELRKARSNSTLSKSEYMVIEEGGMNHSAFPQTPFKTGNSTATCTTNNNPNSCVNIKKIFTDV

Molecule: Bromelain
- ameliorating joint pain, Bromelain alone [1]: not effective

Molecule: O=c1cc(-c2ccc(O)c(O)c2)oc2cc(O)cc(O)c12 [Luteolin]
- effectiveness in tests of ion channel function [2]: even more effective than Quercetin
- effectiveness of the bioflavonoid in the inventive formula (in place of Quercetin) ([3]; limited tests): somewhat more effective than Quercetin

Molecule: O=c1c(O)c(-c2cc(O)c(O)c(O)c2)oc2cc(O)cc(O)c12 [Myricetin]
- effectiveness of the bioflavonoid in the inventive formula (in place of Quercetin) ([3]; human, in vivo): somewhat effective

Molecule: O=c1c(O)c(-c2ccc(O)c(O)c2)oc2cc(O)cc(O)c12 [Quercetin]
- effectiveness in tests of ion channel function [2]: very effective
- modulating the conduction by the Kv1.3 potassium channel [4]: very effective
